Reference: US11672786B2, “Methods of treating diseases associated with repeat instability” (The Hospital for Sick Children, priority 2016, dated 2023)

Tested on: HPRT1 exons 2 and 3, HD primary fibroblast cell line GM09197
Test: HPRT1 sequence analysis by SMRT-CCS sequencing (general mutagen test)
Type: cell-based, human
Excerpt: Towards assessing whether NA-treatment acted as a general mutagen to sequences other than CAG slip-outs, the high read accuracy and depth of single molecule, real time, circular consensus sequencing (SMRT-CCS) was harnessed. Single-molecule sequencing was done on the HPRT1 gene—widely used as a surrogate indicator of the global effect of induced genetic variation. Single-molecule sequencing can detect mutations at frequencies below 0.5% with no false positives. Panel A of FIG. 13 is a schematic of HPRT1 sequencing for mutation detection. Briefly, cells were grown under identical conditions differing only by the addition of NA (50 μM) or saline, DNAs were isolated, HPRT1 exons 2 and 3 PCR amplified and sequenced. Panel B of FIG. 13 are graphs showing the comparison of sequence variations between NA-treated and saline-treated samples. We chose to compare the single-molecule sequence reads of individual X chromosome-linked HPRT1 alleles (exons 2 and 3, 2,897 nucleotides) from the HD patient-derived cells that had been NA- or saline-treated. In this manner, each read would represent a single cell. Graphs show the distribution of sequence variants by relative mutation rate between three experimental replicates of NA-treated and saline-treated cells sequenced with PacBio single-molecule long reads.
DNAs were extracted from three independent NA treatments of the HD primary fibroblast cell line GM09197 and from three independent untreated control cells. HPRT1 exons 2 and 3 were amplified using the high fidelity Platinum Taq DNA Polymerase (Invitrogen, Cat #11304) and the primers shown in Table 1. Amplification products were analyzed using single molecule, real-time (SMRT) sequencing on the PacBio RSII instrument (see FIG. 13A).
Specifically, a ˜2.8 kb PCR product spanning exons two and three of HPRT1 was sequenced for three replicates of HD patient-derived cells in both NA- and saline-treated colonies on a Pacific Biosciences (PacBio) RSII with P6-C4v2 chemistry, 360 minute movies, and one SMRT cell per replicate/treatment combination. Individual molecules from the original cell colony were represented by single long reads from the corresponding SMRT cell. PacBio's SMRTbell construct allows a single molecule to be sequenced one or more times in a single long read based on the number of “passes” the sequencing polymerase makes around the SMRTbell insert. An average of 99,023 distinct reads were sequenced per SMRT cell. The resulting long reads contained an average of ˜7 passes through the insert sequence. The average median insert length per SMRT cell was 2,873 bp. […] Based on these filters, an average of 1,343 consensus sequences per replicate/treatment pair were produced with a range of up to 2,402 sequences. […] To estimate the mutation rate for each replicate/treatment combination, the number of times a specific variant occurred was calculated between high-quality PacBio consensus reads at a specific position in the human reference (GRCh38) divided by the total number of high-quality reads aligned across each position. For each replicate, the relative mutation rate was calculated between NA- and saline-treated cells as the mutation rate for NA-treated cells minus the rate for saline-treated cells and identified excess mutation rates based on an absolute relative rate >0.5%. […]

naphthyridine-azaquinolone
distinct sites with extreme relative mutation rates, number (50 μM NA, across 2,897 positions, control 84): 113
distinct sites with extreme relative mutation rates, percent (50 μM NA, control 2.9%): 3.9%
variants with extreme mutation rates (absolute relative rate >0.5%), number (50 μM NA, of the 15,277 variants across three replicates, saline 101): 149
variants with extreme mutation rates, percent (50 μM NA, saline 0.7%): 1.0%
mutation rates NA- versus saline-treated (p=0.1083, two-sample Kolmogorov-Smirnov test): not significantly different
